Reference: patent US20150330989A1, “METHOD AND SYSTEM FOR DIAGNOSING AND TREATING PREECLAMPSIA” (THE BRIGHAM AND WOMEN'S HOSPITAL, INC., priority 2012, published 2015)

Experiments:
[1] = tested on: patent ductus arteriosus; test: NICU course of the neonate; format: in vivo, human
Procedure: The neonate was intubated at 10 min of life for respiratory support and admitted to the NICU. They were extubated the following morning after one dose of surfactant; blood cultures were negative; and head ultrasound was normal. NICU course was notable for a patent ductus arteriosus (responsive to Indomethacin) and inguinal hernia repair (day 67), after which they were discharged home in good condition. There were trace levels of Eculizumab in cord blood samples taken at delivery, thought secondary to contamination with maternal blood.

[2] = molecular target: T1, C2, classical (Homo sapiens, UniProt P06681); conditions: in vitro; cited from earlier work
T1 sequence (P06681 21-752): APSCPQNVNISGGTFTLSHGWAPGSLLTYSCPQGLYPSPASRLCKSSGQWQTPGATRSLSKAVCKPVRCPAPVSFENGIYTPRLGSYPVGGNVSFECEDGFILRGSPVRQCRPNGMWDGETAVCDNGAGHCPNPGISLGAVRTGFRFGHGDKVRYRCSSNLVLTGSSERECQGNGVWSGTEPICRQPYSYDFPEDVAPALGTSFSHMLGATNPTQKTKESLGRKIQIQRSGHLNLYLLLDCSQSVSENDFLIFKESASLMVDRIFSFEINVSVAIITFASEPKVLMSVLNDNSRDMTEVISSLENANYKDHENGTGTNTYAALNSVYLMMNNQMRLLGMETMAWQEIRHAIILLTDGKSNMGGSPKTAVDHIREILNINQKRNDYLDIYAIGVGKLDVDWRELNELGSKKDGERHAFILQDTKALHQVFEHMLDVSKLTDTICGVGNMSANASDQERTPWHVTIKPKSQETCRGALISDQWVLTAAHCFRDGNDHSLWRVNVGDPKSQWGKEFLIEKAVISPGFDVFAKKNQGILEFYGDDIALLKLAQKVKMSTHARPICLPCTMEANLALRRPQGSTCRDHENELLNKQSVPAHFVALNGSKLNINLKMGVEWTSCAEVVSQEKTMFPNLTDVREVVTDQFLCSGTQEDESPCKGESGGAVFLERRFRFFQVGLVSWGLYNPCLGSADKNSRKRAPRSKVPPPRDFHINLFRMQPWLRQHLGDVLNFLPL

[3] = molecular target: factor D (Homo sapiens, UniProt P00746); conditions: site of action factor D; cited from earlier work
factor D, sequence (P00746 26-253): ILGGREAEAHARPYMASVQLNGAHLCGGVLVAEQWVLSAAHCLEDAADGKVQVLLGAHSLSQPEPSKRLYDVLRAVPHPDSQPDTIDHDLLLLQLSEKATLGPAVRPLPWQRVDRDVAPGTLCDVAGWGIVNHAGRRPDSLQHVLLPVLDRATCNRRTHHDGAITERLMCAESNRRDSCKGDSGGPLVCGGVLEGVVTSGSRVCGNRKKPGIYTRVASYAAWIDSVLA

[4] = tested on: severe preeclampsia/HELLP syndrome; test: Case report: Eculizumab treatment of a pregnant patient with severe preeclampsia/HELLP syndrome; format: in vivo, human; conditions: initial course during Eculizumab treatment
[5] = molecular target: T2, C3 convertase, classical (Homo sapiens, UniProt P06681); conditions: in vitro; cited from earlier work
T2 sequence (P06681 244-752 limits assumed): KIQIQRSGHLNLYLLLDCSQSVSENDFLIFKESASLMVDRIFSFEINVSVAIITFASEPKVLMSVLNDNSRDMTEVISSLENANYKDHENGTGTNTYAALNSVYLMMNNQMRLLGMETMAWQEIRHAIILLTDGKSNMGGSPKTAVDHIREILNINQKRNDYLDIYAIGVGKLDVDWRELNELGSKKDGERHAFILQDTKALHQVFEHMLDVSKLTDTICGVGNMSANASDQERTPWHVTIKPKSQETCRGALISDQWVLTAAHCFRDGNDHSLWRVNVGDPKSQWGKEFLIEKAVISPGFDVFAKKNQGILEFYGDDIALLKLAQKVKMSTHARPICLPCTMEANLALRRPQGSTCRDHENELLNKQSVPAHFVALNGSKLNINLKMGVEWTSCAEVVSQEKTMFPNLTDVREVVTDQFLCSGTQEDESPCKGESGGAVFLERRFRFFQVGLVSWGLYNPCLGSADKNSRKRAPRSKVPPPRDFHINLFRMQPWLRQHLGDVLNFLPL

## COc1ccc2c(c1)c(CC(=O)O)c(C)n2C(=O)c1ccc(Cl)cc1 [Indomethacin]
[1]
  patent ductus arteriosus, response: responsive

## CC1(C)[C@@H](O[C@H]2O[C@H](C(=O)O)[C@@H](O)[C@H](O)[C@H]2O[C@@H]2O[C@H](C(=O)O)[C@@H](O)[C@H](O)[C@H]2O)CC[C@]2(C)[C@H]3C(=O)C=C4[C@@H]5C[C@@](C)(C(=O)O)CC[C@]5(C)CC[C@@]4(C)[C@]3(C)CC[C@@H]12 [Glycyrrhizin]
[2]
  IC50: 35 µM

## N=C(N)c1cc2ccc(OC(=O)c3cccs3)cc2s1 [BCX-1470]
[3]
  IC50: 0.096 µM

## NS(=O)(=O)c1cc(C(=O)O)c(NCc2ccco2)cc1Cl [Lasix]
[4]
  pulmonary edema, response: responded

## O=C(/C=C/c1ccc(O)c(O)c1)O[C@H](Cc1ccc(O)c(O)c1)C(=O)O [Rosmarinic acid]
[5]
  IC50: 5 to 10 µM

## CC(CCc1ccccc1)NCC(O)c1ccc(O)c(C(N)=O)c1 (stereo not drawn) [Labetalol]
[4]
  escalating blood pressures, response: responded
